Here are results for nine compounds from patent US20140286945A1, “ENZYME INHIBITOR FOR CANCER TREATMENT” (The Curators of the University of Missouri, priority 2011, published 2014).

Series [1] deals with MCF-7 cells. The experiment in a line: MCF-7 cell proliferation (MTT). The settings on record: for response of MCF-7 cells to treatment: at low doses. The format is cell-based. The procedure: Refer to FIG. 11, which compares MCF-7 cell proliferation data among the treatments of BIBB515, Tamoxifen, Anastraozole, and various combinations thereof. During the experiments, the MCF-7 cells were treated with charcoal-stripped serum prior to treatment and grown with treatment repeated every 72 hrs. The cells were grown for 6 days, on day 7 the cell proliferation was determined by adding MTT and read at 570 nm according to the manufactures instructions. […] Thus, inhibiting the cholesterol pathway can inhibit the estrogen induced cell proliferation in MCF-7 cells.

Series [2] concerns Mec-2 cells. The experiment in a line: MTT assay of cell viability/proliferation in Mec-2 cells. Type of series: cell-based. The settings on record: for effect on cell proliferation, agents alone: 72 hours, BIBB515 at 10 μm (10^−5), Fludarabine 10 μM (FIG. 4). For orientation: Tetrazolium assays rely on reduction of a dye to a coloured formazan, in cell work by metabolically active cells.

The subject of series [3] is Raji cells. In words: Raji (Burkitt lymphoma) cell viability at 72 hours. The format is cell-based. The method, then:
1. Inhibition on cell viability of Raji after treatments with BIBB515 alone and in combination with Fludarabine. Burkitt lymphoma is a highly aggressive lymphoma, and Raji cells are sensitive to Fludarabine treatment at 10 μM concentration. […] Fludarabine was used at 5 μM concentration.
2. Inhibition on cell viability of Raji after treatments with Terbinafine alone and in combination with Fludarabine. […] The preferred cholesterol concentration range may also various between different cancer types.

The test system of series [4] is CD-20. The experiment in a line: Flow-cytometric analysis of CD-20 in Mec-2 cells. The format is cell-based. The settings on record: flow cytometry, Fludarabine 10 μM, compared to control (FIG. 2). (Flow cytometry measures light scatter and fluorescence of single cells or particles in a stream.)
For series [5], the system named is CD-54. The experiment in a line: Flow-cytometric analysis of CD-54 in Mec-2 cells. Type of series: cell-based. The settings on record: flow cytometry, Fludarabine 10 μM, compared to control (FIG. 2).
Series [6] concerns Wac-3 cells. In words: MTT assay of cell viability in Wac-3 cells. Type of series: cell-based.
For series [7], the system named is patient CLL cells. The experiment in a line: Patient CLL cell viability. Type of series: cell-based. The method, then:
1. Inhibition effect with BIBB515 alone and in combination with Fludarabine and Rituximab on patient cells. To assess the effect of treatment on cell viabilities, patient CLL cells were treated with BIBB515 alone and in combination with Fludarabine and Rituximab. Untreated CLL patient cell samples and samples of patients exposed to Fludarabine were used. The treatment was done 24 hrs after the cells plated in T25 flasks.

Series [8] deals with Mec-2 cells. In words: Confocal microscopic analysis of glycosphingolipid density in Mec-2 cells. Type of series: cell-based. The settings on record: confocal microscopy, relative to control, TAK-475 at 10 μM, data not shown. The method, then:
Mec-2 cells were treated with BIBB515, YM-53601, or 10 μM of TAK-475 and imaged by confocal miscrscope. […] This would explain why rituximab is of limited or no efficacy in Mec-2 and Wac-3 cells, and provides a rationale for the efficacy of combination treatment with rituximab and a cholesterol biosynthetic pathway inhibitor.

The test system of series [9] is dog lymphoma cells. The experiment in a line: Dog lymphoma cell viability. Type of series: cell-based. The settings on record: BIBB515 10 μM. From the text: Spontaneously occurring lymphoma in the dog has many of the same histopathological, molecular, and clinical features as non-Hodgkin's lymphoma (NHL) in humans. Most of the lymphoma subtypes recognized in humans have histopathologically identical counterparts in the dog and recent investigations show similar molecular characteristics in the two species. Likewise, spontaneous lymphoma in the dog has a similar clinical presentation, response to chemotherapy, and clinical progression compared to NHL in human patients. […] A canine lymphoma cell line, OSW, was established from the thoracic effusion of a dog with relapsed peripheral T-cell lymphoma. […] See, e.g., U.S. Pat. No. 7,897,150 and Kisseberth, W. C., et al., “A novel canine lymphoma cell line: a translational and comparative model for lymphoma research,” Leuk Res, 2007 31(12): p. 1709-20.

Series [10] has as its system Mec-2 cells. The experiment in a line: Membrane lipid content of Mec-2 cells by mass spectrometry. The format is cell-based. The settings on record: 24 hrs, 10^−5 M; for some diacyl phosphatidylcholine species: versus DMSO controls; for lysophosphatidylcholines (LPC): versus DMSO controls (FIG. 19); for levels of phosphatidylcholines (PC): versus DMSO controls (FIG. 20); for levels of glycosphingolipids/dihydroglycosphingolipids: versus DMSO controls (FIG. 21); for levels of ether-linked phosphatidylcholines: versus DMSO controls (FIG. 22). The method, then:
Lipids were extracted by the following chloroform and methanol method. To 0.8 parts cells in aqueous solution, 1 part chloroform and 2 parts methanol was added and shaken well, then another 1 part chloroform and 1 part water added and shaken. The mixture was then centrifuged at low speeds for 5-10 min. and the lower layer removed. One part chloroform was added 3 times, shaken and centrifuged to again remove the lower layer. The layers were then combined, washed with KCl and then water. The extracted lipids from Mec-2 cells were vacuum dried after 24 hrs. of treatment with BIBB(10^−5 M) and YM(10^−5 M). Controls were treated with DMSO.
Samples were analyzed by mass spectrometry by the Kansas Lipidomics Research Center (KLRC) and identified and quantified by comparison against standard molecular weights of lipids. Each sample was loaded, vaporized, and ionized by electron beam; ions electromagnetically separated according to mass-to-charge ratio (m/z) were detected, and the ion signal processed into mass spectra.
Compounds were identified based on m/z of the intact ion and the mass of one fragment formed in the mass spectrometer: typically, for polar lipids, a head group fragment; for sphingolipids, a fragment characteristic of the long-chain base or sugar(s); for neutral lipids and for specialized analyses, often an acyl fragment. Quantities were reported as normalized signal/(tissue metric nanomole/3 million cells) against internal standards added in known amounts, usually with an adjustment for variation in response with m/z. Thus, quantities reported as normalized signal/(tissue metric) for diacyl or monoacyl phospholipids can be considered to be equal to nmol/(tis sue metric).

For series [11], the system named is Mec-2 cells. The settings on record: 10 µM.
The conditions of series [12]: rat, hamster, squirrel monkey and minipig models; due to inhibition of LDL production; cited from earlier work.
Series [13] deals with Mec-2 cells. The experiment in a line: Flow cytometry of glycosphingolipids in Mec-2 cells. Type of series: cell-based. The settings on record: data not shown.
Series [14] has as its system multiple myeloma cell line U226B1. The experiment in a line: Multiple myeloma cell line proliferation. Type of series: cell-based. The settings on record: Ro-48-8071 alone (FIG. 12).
Setting [15] is: 10 μM YM-53601, 10 μg/mL alemtuzumab.

Consider `CC/C(=C(\c1ccccc1)c1ccc(OCCN(C)C)cc1)c1ccccc1` [Tamoxifen], for which the “response of MCF-7 cells to treatment” value in [1] is “resistant”.
For `CN(C/C=C/C#CC(C)(C)C)Cc1cccc2ccccc12` [Terbinafine, terbinafine], the “cell proliferation (MTT assay)” value in [2] (Terbinafine 60 μM, controls 0.5 (FIG. 5)) is 0.16. Also, the Raji cell proliferation entry in series [3] (Terbinafine study (FIG. 10)) is given as “reduced”.
The term viability denotes a read-out of living cells in per cent, often relative to untreated cells. Consider `O=C(c1ccc(Cl)cc1)N1CCC(=Cc2ccc(C3=NCCO3)cc2)CC1` [BIBB515], for which, in [4], the “CD-20 cell surface expression” value is listed as “increased CD-20 cell surface expression”. Moreover, the “CD-54 cell surface expression” value in series [5] was “maintained at the similar level”. In series [2], the “effect on cell proliferation, agents alone” value is “able to inhibit cell proliferation”. The “sensitization of cells to Rituximab treatment” value in [6] (BIBB515 study (FIG. 8)) is reported as “sensitizes the Wac-3 cells to Rituximab treatment”. The Raji cell proliferation entry in [3] (BIBB515 various concentrations, even at 10^−7, Fludarabine 5 μM (FIG. 9)) is recorded as “reduced”. Besides, the “sensitization of MCF-7 cells” value in series [1] (FIG. 11) was “sensitized”. Also, the “proliferation of cells with estrogen” value in series [1] (MCF-7, charcoal-stripped serum, 6 days, MTT on day 7 (FIG. 11)) was “blocked”. Further, the “cell death in MCF-7 cells” value in [1] (relatively low doses of Tamoxifen or Anastrazole) was “induces cell death”. Moreover, the “effect on cell viability” value in [7] (BIBB515 study) was “reducing the cell viability moderately”. Also, the “glycosphingolipids and thus lipid raft density” value in [8] was “increase”. In series [9] (Chlorambucil 100 nM (FIG. 16)), the cell viability entry is “reducing the cell viability somewhat”. Also, the cell viability result in series [9] (lomustine 100 nM (FIG. 15)) was “reducing the cell viability somewhat”. In series [10], the “some diacyl phosphatidylcholine species” value is reported as “reduce”, the “lysophosphatidylcholines (LPC)” value was “reduce”, the “levels of phosphatidylcholines (PC)” value is “increase” and the levels of glycosphingolipids/dihydroglycosphingolipids result is on record as “increase”. In [10], the “levels of ether-linked phosphatidylcholines” value is “increase”. The compound further came in with a viability in series [11] of 65%. The lipid lowering result in [12] is “lower lipids”.
Consider `F/C(COc1ccc2c(c1)[nH]c1ccccc12)=C1/CN2CCC1CC2` [YM-53601], for which the “effect on cell proliferation” value in [2] (YM-53601 100 nM (FIG. 7)) is “reduces Mec-2 cell proliferation moderately”. Moreover, in [6] (setting [15]), the “effect on cellular proliferation” value is reported as “effective at preventing cellular proliferation”. Besides, the “growth of cell population” value in [6] (10 μM YM-53601, 10 μg/mL alemtuzumab, control population more than tripled) is on record as “did not achieve even a doubling”. The “glycosphingolipids and thus lipid raft density” value in series [8] was “increase”. Besides, the “glycosphingolipids / lipid raft density by flow cytometry” value in [13] is “increase was confirmed”. Also, in series [10], the “some diacyl phosphatidylcholine species” value was “reduce”, the “lysophosphatidylcholines (LPC)” value is reported as “reduce”, the “levels of phosphatidylcholines (PC)” value is “increase” and the levels of glycosphingolipids/dihydroglycosphingolipids entry is given as “increase”. In addition, the “levels of ether-linked phosphatidylcholines” value in series [10] was “increase”.
For the compound `CC(C)(C#N)c1cc(Cn2cncn2)cc(C(C)(C)C#N)c1` [Anastrazole], the “response of MCF-7 cells to treatment” value in series [1] is listed as “resistant”.
Turning to “Rituximab: an antiCD-20 monoclonal antibody that is in use in clinics”, the “effect on cell proliferation, agents alone” value in series [2] was “resistant”. Also, the “effect on cellular proliferation” value in [6] (10 μM TAK-475, 5 μM Fludarabine, 10 μg/mL Rituximab (FIG. 14)) is listed as “wholly ineffective”.
In the case of “alemtuzumab: CD52-targeting monoclonal antibody”, the “effect on cellular proliferation” value in [6] (setting [15]) is listed as “ineffective at the concentration tested”.
`C=CCN(C)CCCCCCOc1ccc(C(=O)c2ccc(Br)cc2)c(F)c1` [Ro-48-8071]: the “concentration giving the highest inhibition (dose dependent sensitivity)” value in series [2] (Ro-48-8071 alone (FIG. 6)) came to 30 µM. Further, the “effect on cell proliferation” value in series [2] (Ro-48-8071 study, Fludarabine 10 μM (FIG. 6)) is recorded as “inhibits Mec-2 cell proliferation significantly”. Moreover, the cell proliferation result in series [14] was “provides reduction on cell proliferation”. In addition, in series [7] (Ro-48-8071 study, control over 80%), the cell viability entry is recorded as “about 65%”. Moreover, the lipid lowering result in [12] is “lower lipids”.
In series [11], `Nc1nc(F)nc2c1ncn2[C@@H]1O[C@H](CO)[C@@H](O)[C@@H]1O` [Fludarabine] gave a viability of 82%.
